The experiment concerns the target T1, human recombinant renin (Homo sapiens, UniProt P00797).
T1 sequence (P00797 67-406): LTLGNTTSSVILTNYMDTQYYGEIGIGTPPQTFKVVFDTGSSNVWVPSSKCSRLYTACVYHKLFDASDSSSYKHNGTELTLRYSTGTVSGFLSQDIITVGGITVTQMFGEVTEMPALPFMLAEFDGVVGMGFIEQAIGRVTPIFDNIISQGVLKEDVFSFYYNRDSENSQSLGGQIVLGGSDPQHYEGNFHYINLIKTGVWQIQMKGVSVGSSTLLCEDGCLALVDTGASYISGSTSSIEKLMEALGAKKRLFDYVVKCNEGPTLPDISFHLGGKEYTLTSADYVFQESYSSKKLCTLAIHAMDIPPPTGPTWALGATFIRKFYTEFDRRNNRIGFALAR
Kind of experiment: Inhibition of human recombinant renin (enzymatic in vitro assay, Ang I detected by EIA). Format: biochemical. The conditions noted are these: human recombinant renin 0.16 ng/mL, synthetic human angiotensin(1-14) 0.5 μM, 37° C. for 3 h. The procedure:
Inhibition of Human Recombinant Renin by the Compounds of the Invention The enzymatic in vitro assay was performed in 384well polypropylene plates (Nunc). The assay buffer consisted of 10 mM PBS (Gibco BRL) including 1 mM EDTA and 0.1% BSA. The incubates were composed of 50 μL per well of an enzyme mix and 2.5 μL of renin inhibitors in DMSO. The enzyme mix was premixed at 4° C. and consists of the following components: • human recombinant renin (0.16 ng/mL).synthetic human angiotensin(1-14) (0.5 μM) • hydroxyquinoline sulfate (1 mM) The mixtures were then incubated at 37° C. for 3 h. To determine the enzymatic activity and its inhibition, the accumulated Ang I was detected by an enzyme immunoassay (EIA) in 384well plates (Nunc). 5 μL of the incubates or standards were transferred to immuno plates which were previously coated with a covalent complex of Ang I and bovine serum albumin (Ang I—BSA). […] of Ang I-antibodies in essaybuffer above including 0.01% Tween 20 were added and a primary incubation made at 4° C. overnight The plates were washed 3 times with PBS including 0.01% Tween 20, and then incubated for 2 h at rt with an antirabbit-peroxidase coupled antibody (WA 934, Amersham).

The structures appear in SMILES notation.

For the compound `COCCCOc1nccc(CN(C(=O)C2=C(c3ccc(CCCOc4c(F)ccc(F)c4Cl)cc3)C[C@@H]3CC[C@H]2N3)C2CC2)c1C` (racemic) [Example 1, (rac.)-(1R*,5S*)-3-{4-[3-(2-Chloro-3,6-difluorophenoxy)propyl]phenyl}-8-azabicyclo[3.2.1]oct-2-ene-2-carboxylic acid cyclopropyl-[2-(3-methoxy-propoxy)-3-methylpyridin-4-ylmethyl]amide], the IC50 (commonly the point on the concentration scale where inhibition reaches its midpoint) came to 0.79 nM.

These data come from patent US20070135406A1, “Diazabicyclononene and tetrahydropyridine derivatives with a new side-chain” (priority 2003, published 2007).
